Assay results published in patent publication US12357611B2, “Sulcardine administration for treatment of acute atrial fibrillation” (HUYABIO International, LLC, priority 2018, dated 2025).
Structures can show the parent of a compound that is named as a salt.

What was measured:
[1] = Phase 1 single ascending iv dose trial: pharmacokinetics (plasma sulcardine); format: in vivo, human; conditions: iv infusion, various dosages, FIG. 1
Protocol: (§1) HBI-3000 (sulcardine sulfate) was administered to human subjects according to the protocol provided in ClinicalTrials.gov Identifier: NCT03397641. That protocol is incorporated herein by reference in its entirety.
(§2) Objective: Provided herein are the safety, tolerability, pharmacokinetics and electrocardiogram (ECG) results of a Phase 1 single ascending dose trial of intravenous (iv) HBI-3000 in healthy subjects.
(§3) Methods: […] subjects were randomized to 6 cohorts of 8 subjects to receive 1 of 5 single ascending iv doses (Table 2) of HBI-3000 or placebo (6:2), with 2 cohorts receiving the 600 mg dose. Doses of RBI-3000 ranged from 20 mg (Cohort A), 60 mg (Cohort B), 180 mg (Cohort C), 360 mg (Cohort D), to 600 mg (Cohort E and F). Drug was a lyophilized powder, reconstituted to […] then diluted in saline for delivery via intravenous infusion as a 50 mL solution over 30 minutes.

[2] = Chen et al.; cited from earlier work
healthy subjects [3] = test: Phase 1 single ascending iv dose trial: continuous 12-lead Holter ECG, baseline and placebo subtracted (ΔΔ) ECG intervals at Cmax; format: in vivo, human; conditions: single iv doses 20 to 600 mg
Protocol: as §1, §2, §3
Continuous 12-lead Holter ECG data were recorded at baseline and 11 time points thereafter. Mean baseline and placebo subtracted (ΔΔ) ECG intervals (QTcF, HR, PR, QRS, and P-wave duration [PDur]) and T-wave segments (J to T peak [JTp] and T peak to T end [TpTe]) were calculated at Cmax for each dose.
Table 2 summarizes ECG data at Cmax for each dose, as predicted by mixed-effects modeling. […] The increases in QRS and PDur are consistent with block of INa-Peak. […]

healthy subjects [4] = test: Phase 1 single ascending iv dose trial: safety and tolerability; format: in vivo; conditions: single iv doses 20 to 600 mg
Protocol: as §1, §2, §3

## COc1ccc(S(=O)(=O)NCc2cc(CN3CCCC3)c(O)c(CN3CCCC3)c2)cc1 [sulcardine, N-[4-hydroxy-3,5-bis(1-pyrrolidinylmethyl)benzyl]-4-methoxybenzenesulfonamide]
[1]
  removal from plasma after Cmax: largely removed or isolated from plasma at 1.0 hours
[2]
  half-life for oral administration: about 16 hours

## COc1ccc(S(=O)(=O)NCc2cc(CN3CCCC3)c(O)c(CN3CCCC3)c2)cc1 [HBI-3000, sulcardine sulfate]
Healthy subjects [3]
  dose dependence of ECG parameter changes: dose-proportional changes in all ECG parameters
[1]; listed as sulcardine sulfate
  removal from plasma after Cmax: quickly removed or isolated from plasma
Healthy subjects [4]
  tolerability, dose limiting adverse events or arrhythmias: well tolerated with no dose limiting adverse events or arrhythmias observed
